Measurements: patent publication US20120058099A1, “USE OF HYPOXANTHINE FOR PROMOTION OF NEURONAL OUTGROWTH” (CHILDREN'S MEDICAL CENTER CORPORATION, priority 2009, published 2012)
“Also recorded” adds a separate entry of the source.

How the values were obtained:
[1] = tested on: embryonic cortical neurons; experiment: Embryonic cortical neuron axon outgrowth, competition with 6-thioguanine (FIG. 1); assay type: cell-based, rat; conditions: 6-TG 0-80 μM added 1 hour before hypoxanthine or inosine, 3 days growth
Method: FIG. 1 contains two separate sets of bar graphs and line graphs representative of data obtained from embryonic cortical neuron competition experiments.
(§1) These experiments were done on embryonic cortical neurons. The forebrains of […] rat pups were dissected and plated in media containing serum. After 3 hours the medium was exchanged for Medium E (Irwin et al. 2006) (Proc Nati Acad Sci U S A. 2006 Nov 28;103(48):18320-5). The cells were treated the following day with inosine or hypoxanthine, in the presence and absence of the indicated amount of the inhibitor 6-thioguanine (6-TG), and allowed to grow for 3 days. The 6-TG was added 1 hour before the hypoxanthine or inosine. Following the three days of growth, the cells were fixed and stained with Taul antibody and a fluorescent secondary antibody. Axons were then counted. […] FIG. 1 presents the data obtained.

[2] = tested on: embryonic cortical neurons; experiment: Embryonic cortical neuron outgrowth visualised by Tau1/MAP2 staining (FIG. 3); assay type: cell-based, rat; conditions: for axonal outgrowth (Tau1/MAP2 staining): BDNF 2 ng/ml or hypoxanthine 100 μM, FIG. 3
Excerpt: FIG. 3 is a series of photographs of embryonic cortical neurons grown in the presence of the indicated factors (BDNF, hypoxanthine, BDNF+6-thioguanine, BDNF+6-thioguanine+hypoxanthine), which have then been stained with either antibodies to Taul, antibodies to MAP2, or both antibodies to Taul and antibodies to MAP2, in order to visualize neuronal outgrowth.
as §1
Embryonic cortical neurons were grown in the presence of BDNF (2 ng/ml), hypoxanthine (100 μM), BDNF (2 ng/ml)+6-thioguanine (20 μM) , or BDNF (2 ng/ml)+6-thioguanine (20 μM)+hypoxanthine (100 μM), as described above. The cells were then fixed and stained with either antibodies to Taul, antibodies to map2, or both antibodies to Taul and antibodies to map2, and corresponding fluorescent secondary antibodies, in order to visualize axonal outgrowth.

[3] = tested on: embryonic cortical neurons; experiment: Embryonic cortical neuron axonal outgrowth with or without BCX-34 (FIG. 2); assay type: cell-based, rat; conditions: inosine or hypoxanthine 100 μM, BDNF 2 ng/ml
Method: as §1
In a similar experiment, embryonic cortical neurons were given brain derived neurotrophic factor (BDNF) (2 ng/ml), inosine, or hypoxanthine (100 μM). […] The cells were then scored for neuron axonal outgrowth. The data collected is represented in FIG. 2.

[4] = target: Mst3b (Homo sapiens, UniProt Q9Y6E0); conditions: data not shown
Mst3b, sequence (Q9Y6E0 whole entry): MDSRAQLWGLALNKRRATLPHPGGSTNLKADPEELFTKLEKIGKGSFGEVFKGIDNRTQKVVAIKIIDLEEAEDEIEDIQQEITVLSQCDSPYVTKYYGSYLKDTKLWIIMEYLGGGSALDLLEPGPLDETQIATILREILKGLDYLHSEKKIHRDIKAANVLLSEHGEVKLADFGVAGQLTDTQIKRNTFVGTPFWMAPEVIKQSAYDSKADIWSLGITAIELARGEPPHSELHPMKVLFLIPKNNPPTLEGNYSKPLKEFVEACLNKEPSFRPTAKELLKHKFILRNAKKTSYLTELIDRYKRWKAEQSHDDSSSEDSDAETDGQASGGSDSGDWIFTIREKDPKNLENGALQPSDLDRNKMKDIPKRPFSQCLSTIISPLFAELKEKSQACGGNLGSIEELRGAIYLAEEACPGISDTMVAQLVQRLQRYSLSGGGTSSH

Molecule | inhibition by 6-thioguanine of inosine- and hypoxanthine-induced axon outgrowth [1] | inhibition by 6-thioguanine of inosine- and hypoxanthine-induced axon outgrowth ([1]; listed as 6-thioguanine) | inhibition of BDNF stimulated outgrowth ([2]; BDNF 2 ng/ml + 6-thioguanine 20 μM) | induction of axonal outgrowth [3] | reversal of 6-TG inhibition of BDNF stimulated outgrowth ([2]; BDNF 2 ng/ml + 6-thioguanine 20 μM + hypoxanthine 100 μM) | axonal outgrowth (Tau1/MAP2 staining) [2] | activation of Mst3b [4]
Nc1nc2nc[nH]c2c(=S)[nH]1 [6-TG, 6-thioguanine, reference compound] | competitively inhibited the actions of both inosine and hypoxanthine | competitively inhibits the actions of both inosine and hypoxanthine | can be inhibited |  |  |  | 
O=c1[nH]cnc2nc[nH]c12 [hypoxanthine] | similarly inhibited by 6-TG |  |  | induced axonal outgrowth similarly to BDNF | inhibition can be overcome; also recorded: inhibition was overcome | cause outgrowth; also recorded: caused axonal outgrowth | activates Mst3b
OC[C@H]1O[C@@H](n2cnc3c(O)ncnc32)[C@H](O)[C@@H]1O [inosine, reference compound] | similarly inhibited by 6-TG |  |  | induced axonal outgrowth similarly to BDNF |  |  | 
BDNF: brain derived neurotrophic factor (protein, UniProt P23560 19-247, looked up) Neurotrophic factor BDNF …: APMKEANIRGQGGLAYPGVRTHGTLESVNGPKAGSRGLTSLADTFEHVIEELLDEDQKVRPNEENNKDADLYTSRVMLSSQVPLEPPLLFLLEEYKNYLDAANMSMRVRRHSDPARRGELSVCDSISEWVTAADKKTAVDMSGGTVTVLEKVPVSKGQLKQYFYETKCNPMGYTKEGCRGIDKRHWNSQCRTTQSYVRALTMDSKKRIGWRFIRIDTSCVCTLTIKRGR |  |  |  |  |  | cause outgrowth; also recorded: caused axonal outgrowth | 
